Data as given in ChEMBL document CHEMBL4418306, “Quinolinone lysyl oxidase-like 2 inhibitors and uses thereof” (2017).
Active and inactive are the calls of the source. No cut-off for these calls is given here.

Test system: Mus musculus
Test: Antifibrotic activity in C57BL/6 mouse model of bleomycin-induced lung fibrosis assessed as reduction in collagen level in lung at 60 mg/kg, po pre-treated 1 hr to 1 day before bleomycin injection and measured after 14 to 28 days by hydroxyproline assay
Assay type: functional, organism-based

In the case of `NCc1cc(=O)c2cc(Br)ccc2[nH]1`, the Activity is reported as “Active”.
